How the values were obtained:
FAK = biological target: T1, FAK (Homo sapiens, UniProt Q05397); experiment: Measurement of FAK kinase activity (ULight-LANCE assay); type: biochemical; conditions: 10 µM ATP, 3 nM FAK, TR-FRET; read-out: FAK inhibition activity (IC50)
T1 construct: purchased Cell Signaling 7796
Description: Full sequence FAK was purchased from Cell Signaling (Catalog No.: 7796). ULight-poly GT (PerkinElmer #TRF0100-D), Eu-anti-phospho-Tyr (PT66) ((PerkinElmer #AD0068) and Lance detection buffer (PerkinElmer #CR-97-100) were purchased from PerkinElmer. The kinase solution (50 mM Tris-HCl pH 7.5, 10 mM MgCl2, 1 mM EGTA, 2 mM DTT, 0.01% Tween-20) was adjusted to a final concentration of 3 nM by adding FAK diluted to 6 nM (2X) in white 384 OptiPlate, and added with an amount of 5 µL. 4X ULight-poly GT was adjusted to a final concentration of 100 nM. ATP (Sigma #A2383) was adjusted to a final concentration of 10 µM and in 2.5 µL aliquots. The test compound was sequentially diluted at 12 concentrations and treated with an amount of 0.5 µL. After shaking well and allowing to react at room temperature for 60 minutes, 5 µL of ethylenediaminetetraacetic acid (EDTA, final concentration 40 mM) diluted in Lance detection buffer (Lance detection buffer) was added and the mixture was left at room temperature for 5 minutes to stop the reaction. After adding 4X Eu-anti-phospho-Tyr (PT66) phosphorylated antibody diluted to a final concentration of 2 nM in detection buffer with an amount of 5 µL, and reaction was performed at room temperature for 60 minutes. After adjusting to detect time-resolved fluorescence energy transfer (TR-FRET) at excitation wavelength 320 nm and emission wavelength 665 nm, signals were detected using EnVision Multilabel Reader.

[1] = system: HT-29 human colon adenocarcinoma cells; experiment: Inhibition of proliferation of HT-29 cells (MTT assay); type: cell-based; conditions: read-out: Inhibition activity against proliferation of HT-29 cells (GI50)
Description: HT-29 human colon adenocarcinoma cells were cultured in DMEM [10% FBS, 1% penicillin/streptomycin] at 37 °C in the presence of 5% CO2. The cultured HT-29 cells were harvested with 0.05% trypsin-0.02% EDTA and seeded in a 96-well plate at 5 x 10^3 cells per well.
3-(4,5-Dimethylthiazol-2-yl)-2,5-diphenyltetrazolium bromide (MTT) assay (CellTiter 96 Assay, Promega) was employed to measure cell viability. After adding 15 µL of a dye per well and culturing for 2 hours, the cells were treated with 100 µL of a stop solution and absorbance was measured 24 hours later. The test compound was treated a day after plating. The test compound had been sequentially diluted at 12 concentrations from a 10 mM stock solution using sterilized dimethylsulfoxide (DMSO) and treated with an amount of 0.5 µL. Absorbance at 590 nm was recorded using En Vision 2103, and GI50 value was calculated using GraphPad Prism 4.0 software.

[2] = system: prostate cancer PC-3, breast cancer BT-474, colon LoVo, lung cancer NCI-H460, glioblastoma U-87 MG and pancreatic cancer BxPC-3 cells; conditions: 25-100 mg/kg p.o., human tumor xenografts; cited from earlier work
tumor = conditions: concurrent administration of TAE226 and docetaxel, animal model, P values < 0.01; cited from earlier work

T1 sequence (Q05397 whole entry): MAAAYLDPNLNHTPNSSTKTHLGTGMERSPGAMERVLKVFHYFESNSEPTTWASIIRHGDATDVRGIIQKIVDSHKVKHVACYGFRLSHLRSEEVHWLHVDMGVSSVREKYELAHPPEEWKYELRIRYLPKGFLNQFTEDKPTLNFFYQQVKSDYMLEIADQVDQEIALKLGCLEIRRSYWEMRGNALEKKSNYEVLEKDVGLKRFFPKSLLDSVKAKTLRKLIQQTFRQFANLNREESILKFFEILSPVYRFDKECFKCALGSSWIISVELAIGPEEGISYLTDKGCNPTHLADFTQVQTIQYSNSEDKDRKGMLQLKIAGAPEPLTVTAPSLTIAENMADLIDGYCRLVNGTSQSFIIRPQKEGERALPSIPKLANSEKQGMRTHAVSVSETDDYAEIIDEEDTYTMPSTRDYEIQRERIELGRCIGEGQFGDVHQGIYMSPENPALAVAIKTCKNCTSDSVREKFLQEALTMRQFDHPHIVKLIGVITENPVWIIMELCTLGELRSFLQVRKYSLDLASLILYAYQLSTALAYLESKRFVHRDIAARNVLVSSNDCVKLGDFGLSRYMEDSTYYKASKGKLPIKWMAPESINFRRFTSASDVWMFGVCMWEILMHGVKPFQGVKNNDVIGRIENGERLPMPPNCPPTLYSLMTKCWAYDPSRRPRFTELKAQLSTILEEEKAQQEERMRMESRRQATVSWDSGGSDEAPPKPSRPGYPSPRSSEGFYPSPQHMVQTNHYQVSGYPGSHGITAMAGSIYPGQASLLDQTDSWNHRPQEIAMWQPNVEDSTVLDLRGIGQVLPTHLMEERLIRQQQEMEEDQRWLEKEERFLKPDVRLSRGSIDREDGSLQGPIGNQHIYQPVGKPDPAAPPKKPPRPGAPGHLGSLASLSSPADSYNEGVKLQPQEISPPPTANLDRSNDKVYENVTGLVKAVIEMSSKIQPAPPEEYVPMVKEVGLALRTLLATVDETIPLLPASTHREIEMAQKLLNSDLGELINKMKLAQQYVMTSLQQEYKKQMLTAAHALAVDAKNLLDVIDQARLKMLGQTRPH

Compound | IC50 (FAK) | GI50 [1] | inhibition of tumor growth or tumor degeneration [2] | tumor reduction (tumor)
CCN1CCN(c2ccc(Nc3ncc4scc(-c5cccc(NS(C)(=O)=O)c5)c4n3)cn2)CC1 [Example 1, N-(3-(2-(6-(4-ethylpiperazin-1-yl)pyridin-3-ylamino)thieno[3,2-d]pyrimidin-7-yl)phenyl)methanesulfonamide] | < 0.5 µM | < 1 µM |  | 
Cc1ccc(Nc2ncc3scc(-c4cccc(NS(C)(=O)=O)c4)c3n2)cn1 [Example 11, N-(3-(2-(6-methylpyridin-3-ylamino)thieno[3,2-d]pyrimidin-7-yl)phenyl)methanesulfonamide] | < 1 µM | < 1 µM |  | 
CS(=O)(=O)Nc1cccc(-c2csc3cnc(Nc4ccc(N5CCOCC5)nc4)nc23)c1 [Example 12, N-(3-(2-(6-morpholinopyridin-3-ylamino)thieno[3,2-d]pyrimidin-7-yl)phenyl)methanesulfonamide] | < 1 µM | < 1 µM |  | 
CN(c1ncccc1CNc1nc(Nc2ccc3c(c2)CC(=O)N3)ncc1C(F)(F)F)S(C)(=O)=O [PF-562271] |  |  | 42-90% | 
CNC(=O)c1ccccc1Nc1nc(Nc2ccc(N3CCOCC3)cc2OC)ncc1Cl [TAE226] |  |  |  | 85-97%

Further lines, with some results ahead:

IC50 (FAK) | GI50 [1] | Compound | inhibition of tumor growth or tumor degeneration [2] | tumor reduction (tumor)
< 0.5 µM | < 1 µM | CN(C)CCOc1ccc(Nc2ncc3scc(-c4cccc(NS(C)(=O)=O)c4)c3n2)cn1 [Example 13, N-(3-(2-(6-(2-(dimethylamino)ethoxy)pyridin-3-ylamino)thieno[3,2-d]pyrimidin-7-yl)phenyl)methanesulfonamide] |  | 
< 0.5 µM | < 1 µM | CCN1CCN(c2ccc(Nc3ncc4scc(-c5cccc(C(=O)NC6CC6)c5)c4n3)cn2)CC1 [Example 25, N-cyclopropyl-3-(2-(6-(4-ethylpiperazin-1-yl)pyridin-3-ylamino)thieno[3,2-d]pyrimidin-7-yl)benzamide] |  | 
< 10 µM |  | Cc1ccc(Nc2ncc3scc(-c4cccc(C(=O)NC5CC5)c4)c3n2)cn1 [Example 26, N-cyclopropyl-3-(2-(6-methylpyridin-3-ylamino)thieno[3,2-d]pyrimidin-7-yl)benzamide] |  | 
< 0.5 µM | < 1 µM | O=C(NC1CC1)c1cccc(-c2csc3cnc(Nc4ccc(N5CCOCC5)nc4)nc23)c1 [Example 27, N-cyclopropyl-3-(2-(6-morpholinopyridin-3-ylamino)thieno[3,2-d]pyrimidin-7-yl)benzamide] |  | 
< 0.5 µM | < 1 µM | CCN1CCN(c2ccc(Nc3ncc4scc(-c5cnc6ccccc6c5)c4n3)cn2)CC1 [Example 30, N-(6-(4-ethylpiperazin-1-yl)pyridin-3-yl)-7-(quinolin-3-yl)thieno[3,2-d]pyrimidin-2-amine] |  | 

— patent EP2491043B1, “2,7-SUBSTITUTED THIENO[3,2-D]PYRIMIDINE COMPOUNDS AS PROTEIN KINASE INHIBITORS” (Korea Institute of Science and Technology, priority 2009, dated 2011)
